Source: US20050170015A1 (priority 2000, published 2005)

How the values were obtained:
[1] = tested on: RIF-1 murine fibrosarcoma; test: RIF-1 tumor growth delay, thiocolchicine alone and with cisplatin, camptothecin or amonafide (Example 6); format: in vivo, C3H mice
Procedure: Cisplatin for Injection, USP, was obtained as the commercial product from Bristol Laboratories (Platinol®, Lot No. K1F26A). Camptothecin was obtained from Boehinger-Ingelheim Lot 142088. Amonafide dihydrochloride was prepared in house, in a solution of 20 mg/ml. 0.9% Sodium Chloride for Injection, USP (saline) was manufactured by Abbott Laboratories (Lot No. 55-199-DK). Sterile Water for Injection, USP (WFI) was manufactured by Lyphomed, Inc. (Lot No. 390849). DMSO was obtained from Sigma (St. Louis, Mo.). DMF (dimethylformamide) was obtained from Sigma (St. Louis, Mo.). PEG400 was obtained from Sigma (St. Louis, Mo.).
For preparation of cisplatin formulation, the contents of a 10-mg vial of lyophilized CDDP (Cisplatin for Injection) was resuspended with 10 mL WFI to produce a 1 mg/mL CDDP suspension.
Camptothecin was prepared in a solution of DMSO at 0.75 mg/ml.
This was further diluted using saline to […].
Amonafide was diluted to 15 mg/ml with saline.
Food and water were available ad libitum.
Tumors: The RIF-1 murine fibrosarcoma cell line was maintained in in vitro culture (Wayrnouth medium supplemented with 20% fetal bovine serum) at 37° C. in a humidified 5% CO2 incubator. Log-phase RIF-1 cells were trypsinized and harvested from cell culture flasks to yield a concentration of 4×10^6 cells/mL, then injected intradermally in a volume of 50 μL (equivalent to 2×10^5 cells per injection) into both flanks of each mouse. Nine days later, when tumors reached approximately 100 mm^3 in size, the animals were randomized to different treatment groups.
Evaluation of Tumor Growth Delay: Tumors were measured three times weekly for up to 22 days with Vernier calipers. Tumor volume (cubic millimeters, mm^3) was calculated according to the formula: [formula] in which D1-3 are perpendicular diameters measured in millimeters (mm). Tumor volume quadrupling time (TVQT), defined as the time required for a tumor to grow to four times (4×) its initial volume (at the time of treatment), was used as a study endpoint.
The TVQT was determined for each treatment group and expressed in days as the mean±standard error (SE).

[2] = Ex# E048; oral 40 mg/kg; 0/8 tumors
[3] = Ex# E031, IP 4 mg/kg, 4/8 tumors
[4] = Ex# E048, oral 20 mg/kg, 12/16 tumors

Structure (SMILES): COc1cc2c(c(OC)c1OC)-c1ccc(SC)c(=O)cc1[C@@H](NC(C)=O)CC2 [Thiocolchicine, (S)-N-[5,6,7,9-Tetrahydro-1,2,3-trimethoxy-10-(methylthio)-9-oxobenzo[a]heptalen-7-yl]-acetamide]
- Days to 4× (ave ± SE) ([1]; Ex# E031, IP 1 mg/kg): 8.7 ± 0.4 days
- Days to 4× Median ([1]; Ex# E031, IP 1 mg/kg): 8.7 days
- Delay ([1]; Ex# E031, IP 1 mg/kg): 2.08 days
- T/C ([1]; Ex# E031, IP 1 mg/kg): 1.3
- Days to 4× (ave ± SE) ([1]; Ex# E031, IP 2 mg/kg): 8.9 ± 0.9 days
- Days to 4× Median ([1]; Ex# E031, IP 2 mg/kg): 8.1 days
- Delay ([1]; Ex# E031, IP 2 mg/kg): 1.48 days
- T/C ([1]; Ex# E031, IP 2 mg/kg): 1.3
- Days to 4× (ave ± SE) [1, 3]: 13.2 ± 1.2 days
- Days to 4× Median [1, 3]: 13.4 days
- Delay [1, 3]: 6.77 days
- T/C [1, 3]: 2.0
- Days to 4× (ave ± SE) ([1]; Ex# E047, IP 1 mg/kg): 10.88 ± 1.43 days
- Days to 4× Median ([1]; Ex# E047, IP 1 mg/kg): 10.13 days
- Delay ([1]; Ex# E047, IP 1 mg/kg): 2.57 days
- T/C ([1]; Ex# E047, IP 1 mg/kg): 1.4
- Days to 4× (ave ± SE) ([1]; Ex# E047, IP 1 × 2 mg/kg): 12.49 ± 0.52 days
- Days to 4× Median ([1]; Ex# E047, IP 1 × 2 mg/kg): 13.16 days
- Delay ([1]; Ex# E047, IP 1 × 2 mg/kg): 5.60 days
- T/C ([1]; Ex# E047, IP 1 × 2 mg/kg): 1.7
- Days to 4× (ave ± SE) ([1]; Ex# E047, Oral 10 mg/kg): 11.78 ± 2.08 days
- Days to 4× Median ([1]; Ex# E047, Oral 10 mg/kg): 9.11 days
- Delay ([1]; Ex# E047, Oral 10 mg/kg): 1.56 days
- T/C ([1]; Ex# E047, Oral 10 mg/kg): 1.6
- Days to 4× (ave ± SE) ([1]; Ex# E047, Oral 10 × 2 mg/kg): 13.65 ± 1.60 days
- Days to 4× Median ([1]; Ex# E047, Oral 10 × 2 mg/kg): 13.29 days
- Delay ([1]; Ex# E047, Oral 10 × 2 mg/kg): 5.73 days
- T/C ([1]; Ex# E047, Oral 10 × 2 mg/kg): 1.8
- Days to 4× (ave ± SE) ([1]; Ex# E048, oral 10 mg/kg): 10.14 ± 1.15 days
- Days to 4× Median ([1]; Ex# E048, oral 10 mg/kg): 9.01 days
- Delay ([1]; Ex# E048, oral 10 mg/kg): 2.77 days
- T/C ([1]; Ex# E048, oral 10 mg/kg): 1.6
- Days to 4× (ave ± SE) [1, 4]: 12.34 ± 0.75 days
- Days to 4× Median [1, 4]: 11.52 days
- Delay [1, 4]: 5.28 days
- T/C [1, 4]: 1.9
- Mortality (printed in the Days to 4× column) [2]: All Died
